Laboratory results: EP0573253B1, “Topical anti-bacterial composition” (UNILEVER PLC, priority 1992, dated 1993)

Legend:
Propionibacterium acnes = assay: Agar dilution test, minimum inhibitory concentration; assay type: cell-based; conditions: Trypticase Soy Agar II plates
Description: (§1) Standard agar dilution tests in order to establish the minimum inhibitory concentration (% v/v) for C6 acyl lactylate, C8 acyl lactylate and C12 acyl lactylate were performed both in the presence and the absence of a lipid on the following micro-organisms: • 1. Propionibacterium acnes • 2. Staphylococcus aureus • 3. Escherichia coli • 4. Candida albicans
(§2) Control experiments were performed employing benzoyl peroxide and erthyromycin.
(§3) The present tests were performed using Trypticase Soy Agar II incorporation plates with and without 10% intralipid, supplied by Kabi Pharmacia Inc. In each case the lactylate being tested was used at a starting concentration of 10,000 ug/ml.

Candida albicans = assay: as above; assay type: cell-based; conditions: for MINIMUM INHIBITORY CONCENTRATION: Trypticase Soy Agar II plates
Description: as §1, §2, §3

Staphylococcus aureus = assay: as above; assay type: cell-based; conditions: for MINIMUM INHIBITORY CONCENTRATION: Trypticase Soy Agar II plates
Description: as §1, §2, §3

Escherichia coli = assay: as above; assay type: cell-based; conditions: for MINIMUM INHIBITORY CONCENTRATION: Trypticase Soy Agar II plates; for inhibitory against gram-negative bacteria: text summary of Table II, lipid condition not stated
Description: as §1, §2, §3

rate of hair loss = assay: Reduction of the rate of hair loss, panel of human volunteers (brushing and hair count); assay type: in vivo; conditions: human panellists, about 3 ml applied to the scalp daily at night, compared with placebo composition B; Student t-test
Description: The effect of selected acyl lactylates, as herein defined, on reducing the rate of hair loss was assessed using a panel of human volunteers.
Each panellist was requested to brush his or her hair immediately on getting out of bed in the morning before other grooming took place. The hair brushing consisted of ten vigorous strokes over the entire head from front to back, ten strokes from back to front and then ten strokes from each side to the opposite side. Brushing was carried out over a towel or other light cloth to collect any hairs that fell. In addition, all the hairs on the brush were removed with forceps. The total number of hair collected each day was counted. Panellists were requested to continue with their routine hair shampooing and grooming techniques as usual, the only change to this routine being the application of products in accordance with the invention or corresponding control or placebo products.
During the first month, each panellist carried out only the standard brushing, collecting and counting of hairs lost to provide a basis for comparison later. For the second and third months, the scalp was treated by adding the test or placebo compositions in addition to the standard brushing technique as previously described. […]
The results were analysed by the standard Student t-test.

[1] = text summary of Table II, lipid condition not stated

Molecule | MINIMUM INHIBITORY CONCENTRATION (Propionibacterium acnes; Lipid (10% intralipid)) | MINIMUM INHIBITORY CONCENTRATION (Propionibacterium acnes; No Lipid) | MINIMUM INHIBITORY CONCENTRATION (Candida albicans; Lipid (10% intralipid)) | MINIMUM INHIBITORY CONCENTRATION (Candida albicans; No Lipid) | MINIMUM INHIBITORY CONCENTRATION (Staphylococcus aureus; Lipid (10% intralipid)) | MINIMUM INHIBITORY CONCENTRATION (Staphylococcus aureus; No Lipid) | MINIMUM INHIBITORY CONCENTRATION (Escherichia coli; Lipid (10% intralipid)) | MINIMUM INHIBITORY CONCENTRATION (Escherichia coli; No Lipid) | inhibitory against gram-negative bacteria (Escherichia coli) [% v/v] | reduction in the rate of loss of hair (rate of hair loss) | inhibitory effect against yeast (Candida albicans; [1]) [% v/v] | inhibitory to gram-positive bacteria (Staphylococcus aureus; [1]) [% v/v]
O=C(OOC(=O)c1ccccc1)c1ccccc1 [Benzoyl Peroxide, benzoyl peroxide, reference compound] | 0.06 % V/V | 0.25 % V/V | 0.12 % V/V | 0.25 % V/V | 0.12 % V/V | 0.25 % V/V | 0.12 % V/V | 0.25 % V/V | – | – | – | –
CC[C@H]1OC(=O)[C@H](C)[C@@H](O[C@H]2C[C@@](C)(OC)[C@@H](O)[C@H](C)O2)[C@H](C)[C@@H](O[C@@H]2O[C@H](C)C[C@H](N(C)C)[C@H]2O)[C@](C)(O)C[C@@H](C)C(=O)[C@H](C)[C@@H](O)[C@]1(C)O [Erthyromycin, erthyromycin, reference compound] | <1.9 x 10^-5 % V/V | <1.9 x 10^-5 % V/V | 0.01 % V/V | 0.01 % V/V | 3.1 x 10^-4 % V/V | 3.1 x 10^-4 % V/V | 0.01 % V/V | 0.01 % V/V | – | – | – | –
C6 acyl lactylate [C6 Lactylate] | 0.5 % V/V | pH Effect | " " | " " | pH Effect | " " | " " | " " | – | – | – | –
C8 acyl lactylate [C8 Lactylate] | 0.5 % V/V | 0.25 % V/V | 1.0 % V/V | 1.0 % V/V | 0.5 % V/V | 0.5 % V/V | 1.0 % V/V | 1.0 % V/V | 1 | – | – | –
C12 acyl lactylate [C12 Lactylate] | 0.25 % V/V | 0.00039 % V/V | >1.0 % V/V | >1.0 % V/V | 0.5 % V/V | 0.06 % V/V | >1.0 % V/V | >1.0 % V/V | > 1 | significantly reduced | > 1 | 0.0625
